Test results taken from publication PMC4290489, “Identification of multiple salicylic acid-binding proteins using two high throughput screens” (Frontiers in Plant Science, 2015).

Experiments:
Format in all cases: binding
[1] = molecular target: T1, GPX2 (Arabidopsis thaliana, UniProt O04922); assay: SPR competition on 3AESA chip; competition of 4AzSA photo-crosslinking; details: 1-5 mM SA, HBS-EP pH 7.4 (SPR); competes with 3AESA and 4AzSA
T1 construct: N-terminal His6 (pET28a), from E. coli
T1 sequence (O04922 1-169): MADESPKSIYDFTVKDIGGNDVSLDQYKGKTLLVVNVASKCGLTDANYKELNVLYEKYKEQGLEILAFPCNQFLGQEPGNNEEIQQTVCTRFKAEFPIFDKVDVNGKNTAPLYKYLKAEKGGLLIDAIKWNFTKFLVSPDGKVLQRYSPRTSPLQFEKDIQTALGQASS

[2] = molecular target: T2, RBCS1A (Arabidopsis thaliana, UniProt P10795); assay: as above; details: 1-5 mM SA, HBS-EP pH 7.4 (SPR); competes with 3AESA and 4AzSA
T2 construct: gene RBCS-1A; small subunit alone, N-terminal His6 (pET28a), from E. coli

[3] = molecular target: T3, GSR2 (Arabidopsis thaliana, UniProt Q8LCE1); assay: as above; details: 1-5 mM SA, HBS-EP pH 7.4 (SPR); competes with 3AESA and 4AzSA
T3 construct: gene GLN1-2; N-terminal His6 (pET28a), from E. coli
T3 sequence (Q8LCE1 1-356): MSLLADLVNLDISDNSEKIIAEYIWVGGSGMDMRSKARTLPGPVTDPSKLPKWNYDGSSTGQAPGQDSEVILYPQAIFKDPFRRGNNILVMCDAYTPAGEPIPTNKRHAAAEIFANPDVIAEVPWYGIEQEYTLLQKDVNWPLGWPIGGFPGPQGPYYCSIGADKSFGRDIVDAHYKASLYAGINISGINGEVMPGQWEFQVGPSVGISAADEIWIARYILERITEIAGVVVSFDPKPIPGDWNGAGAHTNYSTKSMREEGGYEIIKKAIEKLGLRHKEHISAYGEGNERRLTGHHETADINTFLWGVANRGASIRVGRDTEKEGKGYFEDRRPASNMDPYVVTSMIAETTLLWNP

[4] = molecular target: T1, GPX2; assay: UV photo-crosslinking, anti-SA immunoblot; details: 50 uM 4AzSA, PBS, on ice, 254 nm UV; covalent; competed by SA
[5] = molecular target: T3, GSR2; assay: UV photo-crosslinking, anti-SA immunoblot; details: 50 uM 4AzSA, PBS, on ice, 254 nm UV; covalent; competed by SA
[6] = molecular target: T4, TPPII (Arabidopsis thaliana, UniProt F4JVN6); assay: UV photo-crosslinking, anti-SA immunoblot; details: 50 uM 4AzSA, PBS, on ice, 254 nm UV; covalent; competed by SA
T4 construct: gene TPP2; N-terminal His6 (pET28a), from E. coli
T4 sequence (F4JVN6 1-1380): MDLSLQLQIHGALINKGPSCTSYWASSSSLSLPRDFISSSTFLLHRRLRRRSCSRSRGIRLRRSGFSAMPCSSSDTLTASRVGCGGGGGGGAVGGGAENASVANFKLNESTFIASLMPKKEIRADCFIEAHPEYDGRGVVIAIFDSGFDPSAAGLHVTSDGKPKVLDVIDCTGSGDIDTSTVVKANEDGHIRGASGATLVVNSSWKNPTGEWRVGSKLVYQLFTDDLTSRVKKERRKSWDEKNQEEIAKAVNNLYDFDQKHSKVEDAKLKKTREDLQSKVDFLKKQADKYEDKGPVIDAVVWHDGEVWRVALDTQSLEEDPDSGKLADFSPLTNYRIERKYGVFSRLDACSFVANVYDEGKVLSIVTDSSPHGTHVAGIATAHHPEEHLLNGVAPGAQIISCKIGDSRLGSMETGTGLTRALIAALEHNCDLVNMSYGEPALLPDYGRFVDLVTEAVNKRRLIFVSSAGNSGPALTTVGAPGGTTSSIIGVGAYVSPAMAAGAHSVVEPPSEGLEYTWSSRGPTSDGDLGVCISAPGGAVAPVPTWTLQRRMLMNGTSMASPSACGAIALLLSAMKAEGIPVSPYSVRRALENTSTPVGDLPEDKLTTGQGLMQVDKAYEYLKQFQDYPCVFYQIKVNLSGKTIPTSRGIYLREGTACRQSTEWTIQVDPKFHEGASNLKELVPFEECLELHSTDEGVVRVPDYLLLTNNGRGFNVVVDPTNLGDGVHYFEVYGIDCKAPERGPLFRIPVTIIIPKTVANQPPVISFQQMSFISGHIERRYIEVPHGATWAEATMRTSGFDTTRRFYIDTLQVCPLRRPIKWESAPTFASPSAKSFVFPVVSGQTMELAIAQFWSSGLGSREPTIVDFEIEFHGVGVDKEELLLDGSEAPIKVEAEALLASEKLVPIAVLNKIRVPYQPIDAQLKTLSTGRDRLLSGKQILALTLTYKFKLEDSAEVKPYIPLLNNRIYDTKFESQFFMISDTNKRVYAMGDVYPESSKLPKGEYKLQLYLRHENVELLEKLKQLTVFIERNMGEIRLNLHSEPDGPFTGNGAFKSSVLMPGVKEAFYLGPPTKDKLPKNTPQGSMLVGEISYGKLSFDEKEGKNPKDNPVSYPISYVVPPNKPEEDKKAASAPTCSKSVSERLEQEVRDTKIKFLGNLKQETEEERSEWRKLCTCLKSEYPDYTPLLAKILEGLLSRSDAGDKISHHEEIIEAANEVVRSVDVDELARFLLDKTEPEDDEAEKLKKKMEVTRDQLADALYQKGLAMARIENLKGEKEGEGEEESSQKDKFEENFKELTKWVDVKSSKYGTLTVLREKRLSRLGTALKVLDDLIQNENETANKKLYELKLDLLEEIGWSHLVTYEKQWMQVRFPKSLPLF

[7] = molecular target: T5, UGE2 (Arabidopsis thaliana, UniProt Q9T0A7); assay: UV photo-crosslinking, anti-SA immunoblot; details: 50 uM 4AzSA, PBS, on ice, 254 nm UV; covalent; competed by SA
T5 construct: N-terminal His6 (pET28a), from E. coli
T5 sequence (Q9T0A7 1-350): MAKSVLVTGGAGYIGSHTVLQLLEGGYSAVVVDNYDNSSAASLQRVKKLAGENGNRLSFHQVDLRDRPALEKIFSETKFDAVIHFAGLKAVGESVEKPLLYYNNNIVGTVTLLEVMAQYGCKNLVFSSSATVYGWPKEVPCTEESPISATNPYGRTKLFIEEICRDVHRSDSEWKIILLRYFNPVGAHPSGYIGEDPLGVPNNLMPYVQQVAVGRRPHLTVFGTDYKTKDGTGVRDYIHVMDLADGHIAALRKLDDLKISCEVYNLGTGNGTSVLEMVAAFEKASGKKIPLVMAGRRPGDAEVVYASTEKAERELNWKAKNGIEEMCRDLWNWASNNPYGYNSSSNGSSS

SMILES	SPR competition on 3AESA chip; competition of 4AzSA photo-crosslinking [1]	SPR competition on 3AESA chip; competition of 4AzSA photo-crosslinking [2]	SPR competition on 3AESA chip; competition of 4AzSA photo-crosslinking [3]	UV photo-crosslinking, anti-SA immunoblot [4]	UV photo-crosslinking, anti-SA immunoblot [5]	UV photo-crosslinking, anti-SA immunoblot [6]	UV photo-crosslinking, anti-SA immunoblot [7]
O=C(O)c1ccccc1O [SA]	bound 3AESA and crosslinked to 4AzSA in an SA-inhibitable manner, indicating that they are SABPs	bound 3AESA and crosslinked to 4AzSA in an SA-inhibitable manner, indicating that they are SABPs	bound 3AESA and crosslinked to 4AzSA in an SA-inhibitable manner, indicating that they are SABPs	–	–	–	–
[N-]=[N+]=Nc1ccc(C(=O)O)c(O)c1 [4AzSA]	–	–	–	bound 3AESA and crosslinked to 4AzSA in an SA-inhibitable manner, indicating that they are SABPs	bound 3AESA and crosslinked to 4AzSA in an SA-inhibitable manner, indicating that they are SABPs	These five proteins also bound and crosslinked to 4AzSA	bound 3AESA and crosslinked to 4AzSA in an SA-inhibitable manner, indicating that they are SABPs
